# According to article PMC10707071, “Characterization of the Novel Leaderless Bacteriocin, Bawcin, from Bacillus wiedmannii” (International Journal of Molecular Sciences, 2023):
# No end group written: not given here.
# Assays:
# [1] = tested on: Enterococcus faecalis (Ward’s 85W 1100); assay type: cell-based
# Procedure: (§1) The MIC of bawcin against each bacterial strain was determined using the spot-on-lawn assay as described previously with modifications. A Mueller Hinton (MH) double-agar plate was prepared by pouring 5 mL of 0.75% MH agar inoculated with 50 µL of 0.10 OD625 bacterial suspension onto 20 mL of dried 1.5% MH agar. Bawcin diluted with sterile water to 128, 64, 32, 16, 8, 4, 2, and 1 µM was spotted in 10 µL aliquots onto the top agar layer, along with 10 µL of an antibiotic positive control (ampicillin or kanamycin) and sterile water negative control. Plates were incubated at 37 °C for 16–20 h and the MIC was identified as the lowest concentration in which a zone of inhibition was observed, where partial bacterial growth within the zone of inhibition was considered HR. Assays were performed in triplicate.
# [2] = tested on: Bacillus cereus (Ward’s 85W 0200); assay type: cell-based
# Procedure: as §1
# [3] = tested on: Lactobacillus casei (Ward’s 85W 1682); assay type: cell-based
# Procedure: as §1
# [4] = tested on: Micrococcus luteus (Ward’s 85W 0966); assay type: cell-based
# Procedure: as §1
# [5] = tested on: Listeria monocytogenes ATCC 19115; assay type: cell-based
# Procedure: as §1
# [6] = tested on: Lactococcus lactis ssp. lactis (Ward’s 85W 1774); assay type: cell-based
# Procedure: as §1
# [7] = tested on: Staphylococcus aureus ATCC 6538; assay type: cell-based
# Procedure: as §1
# [8] = tested on: Lactobacillus delbruekii ssp. bulgaricus (VWR 470179-126); assay type: cell-based
# Procedure: as §1
# [9] = tested on: Bacillus subtilis (Ward’s 85W 1650); assay type: cell-based
# Procedure: as §1
# pepsin = molecular target: T1, pepsin (Sus scrofa, UniProt P00791); experiment: Protease sensitivity testing (residual activity by spot-on-lawn assay); assay type: in vitro ADME; conditions: 1 mg/mL pepsin in 50 mM phosphate buffer pH 2, 1 h at 37 °C, bawcin at 1×, 4× the MIC (8, 16, 32 µM), spot-on-lawn against M. luteus, triplicate
# T1 construct: purchased Northwest Scientific
# Procedure: as §1
# (§2) Protease stability testing was evaluated as described previously with modification. Papain (Scholar Chemistry, Rochester, NY, USA), pepsin (Northwest Scientific, Billings, MT, USA), trypsin (Sigma-Aldrich, Burlington, MA, USA), alpha-chymotrypsin (Worthington, Lakewood, NJ, USA), and proteinase K (Fisher Scientific, Ottawa, ON, Canada) were prepared to a final concentration of 1 mg/mL in 50 mM phosphate buffer adjusted to pH 2 (pepsin), 6 (papain), and 8 (proteinase K, trypsin, alpha-chymotrypsin). Bawcin was combined with each protease to final concentrations of 1×, 2×, and 4× the MIC. Bawcin’s residual antimicrobial activity against M. luteus was determined via spot-on-lawn assay as described above. The following samples were spotted for each assay: (1) protease combined with bawcin at each concentration, bawcin alone at each concentration, buffer alone, protease in buffer alone, ampicillin (positive control), and sterile water (negative control), where all solutions were incubated for 1 h at 37 °C prior to spotting except ampicillin and sterile water. Assays were performed in triplicate.
# trypsin = experiment: as above; assay type: in vitro ADME; conditions: 1 mg/mL trypsin in 50 mM phosphate buffer pH 8, 1 h at 37 °C, bawcin at 1×, 2×, 4× the MIC, spot-on-lawn against M. luteus, triplicate
# Procedure: as §1, §2
# papain = molecular target: T2, papain (Carica papaya, UniProt P00784); experiment: as above; assay type: in vitro ADME; conditions: spot-on-lawn against M. luteus, triplicate
# T2 construct: purchased Scholar Chemistry
# Procedure: as §1, §2
# alpha-chymotrypsin = molecular target: T3, alpha-chymotrypsin (Bos taurus, UniProt P00766); experiment: as above; assay type: in vitro ADME; conditions: 1 mg/mL alpha-chymotrypsin in 50 mM phosphate buffer pH 8, 1 h at 37 °C, bawcin at 1×, 2×, 4× the MIC, spot-on-lawn against M. luteus, triplicate
# T3 construct: purchased Worthington
# Procedure: as §1, §2
# proteinase K = molecular target: T4, proteinase K (Parengyodontium album, UniProt P06873); experiment: as above; assay type: in vitro ADME; conditions: 1 mg/mL proteinase K in 50 mM phosphate buffer pH 8, 1 h at 37 °C, bawcin at 1×, 2×, 4× the MIC, spot-on-lawn against M. luteus, triplicate
# T4 construct: purchased Fisher Scientific
# Procedure: as §1, §2
# T2 sequence (P00784 134-345): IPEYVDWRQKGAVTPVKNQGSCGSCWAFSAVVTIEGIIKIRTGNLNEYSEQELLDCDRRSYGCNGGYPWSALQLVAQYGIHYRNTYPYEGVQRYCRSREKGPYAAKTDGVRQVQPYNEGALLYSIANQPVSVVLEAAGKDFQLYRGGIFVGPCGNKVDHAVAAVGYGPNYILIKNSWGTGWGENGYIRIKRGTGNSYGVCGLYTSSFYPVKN
# T4 sequence (P06873 106-384): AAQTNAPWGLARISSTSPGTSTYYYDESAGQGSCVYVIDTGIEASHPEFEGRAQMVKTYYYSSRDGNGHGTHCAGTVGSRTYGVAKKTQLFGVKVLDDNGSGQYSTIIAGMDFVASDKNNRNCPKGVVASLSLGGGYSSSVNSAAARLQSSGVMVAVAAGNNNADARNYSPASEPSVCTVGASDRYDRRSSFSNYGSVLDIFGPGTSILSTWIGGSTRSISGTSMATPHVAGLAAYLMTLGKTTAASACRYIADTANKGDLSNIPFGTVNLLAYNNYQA
# T1 sequence (P00791 60-385): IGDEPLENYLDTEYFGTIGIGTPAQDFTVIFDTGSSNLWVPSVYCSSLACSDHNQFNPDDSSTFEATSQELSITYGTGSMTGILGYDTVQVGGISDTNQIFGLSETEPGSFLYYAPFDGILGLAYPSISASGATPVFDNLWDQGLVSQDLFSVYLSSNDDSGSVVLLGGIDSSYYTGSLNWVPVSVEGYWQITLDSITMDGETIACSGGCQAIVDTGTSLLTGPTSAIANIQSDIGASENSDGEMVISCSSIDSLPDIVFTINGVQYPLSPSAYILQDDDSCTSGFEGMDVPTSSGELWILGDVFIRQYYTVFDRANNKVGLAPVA
sequence,measurement,setting,value
MLSFAKLVARLSASKAKWAWNNKGKVVEWIKNGATFEWISNKIDQMMG [bawcin],MIC,[1],32 µM
same,MIC,[2],16 µM
same,MIC,[3],8 µM
same,MIC,[4],4 µM
same,MIC,[5],8 µM
same,MIC,[6],4 µM
same,MIC,[7],16 µM
same,MIC,[8],8 µM
same,MIC,[9],8 µM
same,Residual antimicrobial activity when combined with pepsin,pepsin,only at 4× the MIC (with HR)
same,Residual antimicrobial activity in the presence of trypsin,trypsin,lost antimicrobial activity at all concentrations tested
same,Residual antimicrobial activity when combined with papain,"papain; 1 mg/mL papain in 50 mM phosphate buffer pH 6, 1 h at 37 °C, bawcin at 1×, 2×, 4× the MIC (8, 16, 32 µM)",retained its antimicrobial activity
same,Lowest bawcin concentration remaining active in combination with papain,"papain; 1 mg/mL papain, pH 6, 1 h at 37 °C, 32, 16, 8 µM tested",8 µM
same,Residual antimicrobial activity in the presence of alpha-chymotrypsin,alpha-chymotrypsin,lost antimicrobial activity at all concentrations tested
same,Residual antimicrobial activity in the presence of proteinase K,proteinase K,lost antimicrobial activity at all concentrations tested
